Here are results for 24 molecules from patent US20230295152A1 (SENDA BIOSCIENCES, INC., priority 2019, published 2023).

The target of the test is T1, AHR (Homo sapiens, UniProt P35869).
T1 construct: other cell line with a DRE-luciferase reporter stably transfected; endogenous in cells; host or cells: HepG2 AhR-Lucia reporter cells
T1 sequence (P35869 11-848): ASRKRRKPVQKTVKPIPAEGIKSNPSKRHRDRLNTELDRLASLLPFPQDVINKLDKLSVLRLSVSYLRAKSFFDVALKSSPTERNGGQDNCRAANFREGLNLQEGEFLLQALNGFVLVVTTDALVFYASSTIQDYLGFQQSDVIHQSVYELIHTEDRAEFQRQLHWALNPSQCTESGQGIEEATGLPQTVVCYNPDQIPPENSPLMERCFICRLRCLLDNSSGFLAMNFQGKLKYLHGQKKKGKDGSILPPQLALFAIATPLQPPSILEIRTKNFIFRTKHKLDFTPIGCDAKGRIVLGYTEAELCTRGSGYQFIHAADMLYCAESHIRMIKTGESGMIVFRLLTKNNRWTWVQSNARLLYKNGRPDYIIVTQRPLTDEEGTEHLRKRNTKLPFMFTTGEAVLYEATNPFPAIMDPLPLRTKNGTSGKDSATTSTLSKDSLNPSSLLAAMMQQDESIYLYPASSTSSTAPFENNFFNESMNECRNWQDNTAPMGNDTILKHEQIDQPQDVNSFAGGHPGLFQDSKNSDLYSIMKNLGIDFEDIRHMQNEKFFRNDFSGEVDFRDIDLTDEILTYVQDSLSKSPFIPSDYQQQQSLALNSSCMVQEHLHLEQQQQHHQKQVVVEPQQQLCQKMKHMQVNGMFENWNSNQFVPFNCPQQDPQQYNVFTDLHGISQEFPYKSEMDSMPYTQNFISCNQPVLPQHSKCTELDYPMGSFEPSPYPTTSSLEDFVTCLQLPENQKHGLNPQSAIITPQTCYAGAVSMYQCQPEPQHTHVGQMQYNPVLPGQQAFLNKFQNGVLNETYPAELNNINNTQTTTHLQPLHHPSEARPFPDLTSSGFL
The test can be described thus: DRE-Luciferase Reporter Assay, HepG2 AhR-Lucia reporter cells. It is filed as cell-based. As to conditions: with AHR activating ligand at EC50, read-out: HepG2-Luc IC50. From the text: AHR binds to Dioxin Responsive Elements (DRE) upstream of genes that it activates. One measure of AHR activity is activation of a reporter gene, such as luciferase, downstream of one or multiple DRE elements. Luciferase activity will reflect activation and inhibition of AHR in the cells expressing his reporter. 20000 Human HepG2 liver carcinoma—AhR-Lucia reporter cells or Human HT29 colon adenocarcinoma—AhR reporter cells or other cell line with a DRE-luciferase reporter stably transfected were plated in Eagle's Minimal Essential Medium, 10% heat-inactivated FBS, 1× non-essential amino acids Pen-Strep (10,000 U/mL) and Normocin (100 ug/mL) in plates (96-well, 384-well or other plates) and incubated overnight at 37° C. in a CO2 incubator and treated with and without AhR antagonists at a log dilution starting at 100 uM.
After 1 hr that cells were plated an AHR activating ligand, such as TCDD, kynurenine, ITE (2-(1H-indole-3-ylcarbonyl)-4-thiazolecarboxylic methyl ester), VAF347, BNF (beta-naphthoflavone), FICZ (6-formylindolo(3,2-b) carbazole) or other AHR ligands at their specific EC50 concentration, were added to the cells with or without AHR antagonist.
Cells were incubated for 24 or 48 hours or another time point and then, supernatant was analyzed for determination of luciferase activity as a read-out of the AHR activation or inhibition. Luciferase was measured with the commercial kit QUANTI-Luc™ assay solution kit from Invivogen following the manufacturer's instructions.
The level of luciferase with only agonist ligand added was the maximum signal while the luciferase with […] was the minimum signal. IC50 values were determined as the concentration which inhibits half of the luciferase activity.
As to `CC(C)(O)Cn1cnc2c(-c3cn[nH]c3)nc(-c3ccc(C(F)(F)F)cn3)cc2c1=O` [Compound 159, 3-(2-hydroxy-2-methylpropyl)-8-(1H-pyrazol-4-yl)-6-(5-(trifluoromethyl)pyridin-2-yl)pyrido[3,4-d]pyrimidin-4(3H)-one], the half-inhibitory concentration (IC50) (usually the point on the concentration scale where inhibition reaches its midpoint) is under 100 nM.
Consider `C[C@@H](CO)n1cnc2c(-n3cncn3)nc(-c3ccc(C(F)(F)F)nc3)cc2c1=O` [Compound 164, (S)-3-(1-hydroxypropan-2-yl)-8-(1H-1,2,4-triazol-1-yl)-6-(6-(trifluoromethyl)pyridin-3-yl)pyrido[3,4-d]pyrimidin-4(3H)-one], for which the IC50 lay in the range of 100 to 500 nM.
Take `C[C@@H](CO)n1cnc2c(-n3cccn3)nc(-c3ccc(C(F)(F)F)nc3)cc2c1=O` [Compound 165, (S)-3-(1-hydroxypropan-2-yl)-8-(1H-pyrazol-1-yl)-6-(6-(trifluoromethyl)pyridin-3-yl)pyrido[3,4-d]pyrimidin-4(3H)-one]: the IC50 is under 100 nM.
Then `C[C@@H](CO)n1cnc2c(-n3cccn3)nc(-c3ccc(Cl)cc3)cc2c1=O` [Compound 166, (S)-6-(4-chlorophenyl)-3-(1-hydroxypropan-2-yl)-8-(1H-pyrazol-1-yl)pyrido[3,4-d]pyrimidin-4(3H)-one], with under 100 nM; and `C[C@@H](CO)n1cnc2c(-n3cccn3)nc(-c3ccc(C(F)(F)F)cn3)cc2c1=O` [Compound 167, (S)-3-(1-hydroxypropan-2-yl)-8-(1H-pyrazol-1-yl)-6-(5-(trifluoromethyl)pyridin-2-yl)pyrido[3,4-d]pyrimidin-4(3H)-one], with 100 to 500 nM; and `C[C@@H](CO)n1cnc2c(-c3cnn(C)c3)nc(-c3cnc(C(F)(F)F)s3)cc2c1=O` [Compound 168, (S)-3-(1-hydroxypropan-2-yl)-8-(1-methyl-1H-pyrazol-4-yl)-6-(2-(trifluoromethyl)thiazol-5-yl)pyrido[3,4-d]pyrimidin-4(3H)-one], with under 100 nM.
Under `O=c1c2cc(-c3cnc(C(F)(F)F)s3)nc(-c3cccnc3)c2ncn1[C@H]1COC[C@@H]1O` [Compound 169, 3-((3S,4R)-4-hydroxytetrahydrofuran-3-yl)-8-(pyridin-3-yl)-6-(2-(trifluoromethyl)thiazol-5-yl)pyrido[3,4-d]pyrimidin-4(3H)-one] stands under 100 nM; under `Cn1cc(-c2nc(-c3cnc(C(F)(F)F)s3)cc3c(=O)n(CC(C)(C)O)cnc23)cn1` [Compound 170, 3-(2-hydroxy-2-methylpropyl)-8-(1-methyl-1H-pyrazol-4-yl)-6-(2-(trifluoromethyl)thiazol-5-yl)pyrido[3,4-d]pyrimidin-4(3H)-one], under 100 nM.
Take `Cn1cc(-c2nc(-c3cnc(C(F)(F)F)s3)cc3c(=O)n([C@H]4COC[C@@H]4O)cnc23)cn1` [Compound 171, 3-((3S,4R)-4-hydroxytetrahydrofuran-3-yl)-8-(1-methyl-1H-pyrazol-4-yl)-6-(2-(trifluoromethyl)thiazol-5-yl)pyrido[3,4-d]pyrimidin-4(3H)-one]: the IC50 is under 100 nM.
Then `Cn1cc(-c2nc(-c3cnc(C(F)(F)F)s3)cc3c(=O)n([C@@H]4COC[C@H]4O)cnc23)cn1` [Compound 172, 3-((3R,4S)-4-hydroxytetrahydrofuran-3-yl)-8-(1-methyl-1H-pyrazol-4-yl)-6-(2-(trifluoromethyl)thiazol-5-yl)pyrido[3,4-d]pyrimidin-4(3H)-one], with under 100 nM.
Consider `O=c1c2cc(-c3cnc(C(F)(F)F)s3)nc(-c3cccnc3)c2ncn1[C@@H]1COC[C@H]1O` [Compound 173, 3-((3R,4S)-4-hydroxytetrahydrofuran-3-yl)-8-(pyridin-3-yl)-6-(2-(trifluoromethyl)thiazol-5-yl)pyrido[3,4-d]pyrimidin-4(3H)-one], for which the IC50 was in the range of 100 to 500 nM.
Then `CCN(CC)c1nc(-c2ccc(C(F)(F)F)nc2)cc2c(=O)n([C@@H](C)CO)cnc12` [Compound 174, (S)-8-(diethylamino)-3-(1-hydroxypropan-2-yl)-6-(6-(trifluoromethyl)pyridin-3-yl)pyrido[3,4-d]pyrimidin-4(3H)-one], with under 100 nM; and `C[C@@H](CO)n1cnc2c(N3CCCCC3)nc(-c3ccc(C(F)(F)F)nc3)cc2c1=O` [Compound 175, (S)-3-(1-hydroxypropan-2-yl)-8-(piperidin-1-yl)-6-(6-(trifluoromethyl)pyridin-3-yl)pyrido[3,4-d]pyrimidin-4(3H)-one], with under 100 nM.
As to `C[C@@H](CO)n1cnc2c(N3CCCC3)nc(-c3ccc(C(F)(F)F)nc3)cc2c1=O` [Compound 176, (S)-3-(1-hydroxypropan-2-yl)-8-(pyrrolidin-1-yl)-6-(6-(trifluoromethyl)pyridin-3-yl)pyrido[3,4-d]pyrimidin-4(3H)-one], the IC50 was under 100 nM.
As to `C[C@@H](CO)n1cnc2c(N3CCOCC3)nc(-c3ccc(C(F)(F)F)nc3)cc2c1=O` [Compound 178, (S)-3-(1-hydroxypropan-2-yl)-8-morpholino-6-(6-(trifluoromethyl)pyridin-3-yl)pyrido[3,4-d]pyrimidin-4(3H)-one], the IC50 is under 100 nM.
Under `CC(C)(O)Cn1cnc2c(N3CCCCC3)nc(-c3ccc(C(F)(F)F)nc3)cc2c1=O` [Compound 179, 3-(2-hydroxy-2-methylpropyl)-8-(piperidin-1-yl)-6-(6-(trifluoromethyl)pyridin-3-yl)pyrido[3,4-d]pyrimidin-4(3H)-one] stands under 100 nM.
For the molecule `C[C@@H](CO)n1cnc2c(-c3ccccn3)nc(-c3ccc(C(F)(F)F)nc3)cc2c1=O` [Compound 180, (S)-3-(1-hydroxypropan-2-yl)-8-(pyridin-2-yl)-6-(6-(trifluoromethyl)pyridin-3-yl)pyrido[3,4-d]pyrimidin-4(3H)-one], the IC50 lay in the range of 100 to 500 nM.
Consider `C[C@@H](CO)n1cnc2c(-c3cccnc3)nc(C3CCCCC3)cc2c1=O` [Compound 181, (S)-6-cyclohexyl-3-(1-hydroxypropan-2-yl)-8-(pyridin-3-yl)pyrido[3,4-d]pyrimidin-4(3H)-one], for which the IC50 was over 500 nM.
Then `C[C@@H](CO)n1cnc2c(-c3cccnc3)nc(-c3ccccn3)cc2c1=O` [Compound 182, (S)-3-(1-hydroxypropan-2-yl)-6-(pyridin-2-yl)-8-(pyridin-3-yl)pyrido[3,4-d]pyrimidin-4(3H)-one], with 100 to 500 nM.
Regarding `C[C@@H](CO)n1cnc2c(-c3cccnc3)nc(-c3cnnn3C)cc2c1=O` [Compound 184, (S)-3-(1-hydroxypropan-2-yl)-6-(1-methyl-1H-1,2,3-triazol-5-yl)-8-(pyridin-3-yl)pyrido[3,4-d]pyrimidin-4(3H)-one], the IC50 is over 500 nM.
For `Cc1ccc(-c2cc3c(=O)n([C@@H](C)CO)cnc3c(-c3cccnc3)n2)nc1` [Compound 186, (S)-3-(1-hydroxypropan-2-yl)-6-(5-methylpyridin-2-yl)-8-(pyridin-3-yl)pyrido[3,4-d]pyrimidin-4(3H)-one], the IC50 was under 100 nM.
Consider `Cc1cnc(-c2cc3c(=O)n([C@@H](C)CO)cnc3c(-c3cccnc3)n2)nc1` [Compound 187, (S)-3-(1-hydroxypropan-2-yl)-6-(5-methylpyrimidin-2-yl)-8-(pyridin-3-yl)pyrido[3,4-d]pyrimidin-4(3H)-one], for which the IC50 is over 500 nM.
For `C[C@@H](CO)n1cnc2c(C3=CCCCC3)nc(-c3ccc(C(F)(F)F)cn3)cc2c1=O` [Compound 188, (S)-8-(cyclohex-1-en-1-yl)-3-(1-hydroxypropan-2-yl)-6-(5-(trifluoromethyl)pyridin-2-yl)pyrido[3,4-d]pyrimidin-4(3H)-one], the IC50 lay in the range of 100 to 500 nM.
As for `C[C@@H](CO)n1cnc2c(C3CCCCC3)nc(-c3ccc(C(F)(F)F)cn3)cc2c1=O` [Compound 189, (S)-8-cyclohexyl-3-(1-hydroxypropan-2-yl)-6-(5-(trifluoromethyl)pyridin-2-yl)pyrido[3,4-d]pyrimidin-4(3H)-one], the IC50 is over 500 nM.
